What all share (experiment): relative viability (nuclei count vs DMSO), 5 days (fraction); higher = more cells survive
Compound in experiment [1]: CN1C=C(C2=CC=CC=C21)/C=C\3/C4=C(C=CC=N4)NC3=O + CCNC(=O)c1noc(-c2cc(C(C)C)c(O)cc2O)c1-c1ccc(CN2CCOCC2)cc1 [Luminespib] (partner 0.01 µM)
In a few lines: (§1)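 A single step with final 0.05% Triton X-100, 1% formaldehyde and 1 ug/ml Hoechst fixed the cells and stained nuclei 5 days after treatment. Lung cancer cell lines in 1536-well plates had been treated by pin tool the day after seeding with one drug alone or a fixed anchor-drug dose plus five library-drug doses (not always all listed) in √10 steps, and nuclei were counted on 4× images. Relative viability is the ratio of nuclei in treated wells to nuclei in vehicle wells, taken as the median of duplicate plates.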

Compound in the experiment “Trametinib + Bortezomib”: CC(=O)Nc1cccc(-n2c(=O)n(C3CC3)c(=O)c3c(Nc4ccc(I)cc4F)n(C)c(=O)c(C)c32)c1 [Trametinib] + CC(C)C[C@H](NC(=O)[C@H](Cc1ccccc1)NC(=O)c1cnccn1)B(O)O [Bortezomib] (partner 0.002 µM)
The procedure, abridged:
as §1

Compound in experiment [2]: CN1C=C(C2=CC=CC=C21)/C=C\3/C4=C(C=CC=N4)NC3=O + Nc1ncn([C@H]2C[C@H](O)[C@@H](CO)O2)c(=O)n1 [Decitabine] (partner 2 µM)
The procedure, abridged: as §1

Compound in experiment [3]: CN1C=C(C2=CC=CC=C21)/C=C\3/C4=C(C=CC=N4)NC3=O + COc1cc2c(Oc3ccc(NC(=O)C4(C(=O)Nc5ccc(F)cc5)CC4)cc3F)ccnc2cc1OCCCN1CCOCC1 [Foretinib] (partner 0.25 µM)
In a few lines: as §1

As to NCI-H3122, the relative viability in experiment [1] (first compound 0.02 µM) was 0.0819; in experiment [1] (first compound 0.06325 µM) it was 0.0768; in experiment [1] (first compound 0.2 µM) it was 0.0923; in experiment [1] (first compound 0.6325 µM), 0.0892; in experiment [1] (first compound 2 µM) it was 0.0964; with Trametinib + Bortezomib (first compound 0.0025 µM), 0.985. In addition, the relative viability worked out at 0.74 with Trametinib + Bortezomib (first compound 0.007906 µM); 0.595 in the experiment with Trametinib + Bortezomib (first compound 0.025 µM); 0.432 with Trametinib + Bortezomib (first compound 0.07906 µM); 0.361 in the experiment with Trametinib + Bortezomib (first compound 0.25 µM); 0.407 in experiment [2] (first compound 0.02 µM); 0.445 in experiment [2] (first compound 0.06325 µM). The relative viability in experiment [2] (first compound 0.2 µM) was 0.38; in experiment [2] (first compound 0.6325 µM), 0.496; in experiment [2] (first compound 2 µM) it was 0.507; in experiment [3] (first compound 0.02 µM), 0.857; in experiment [3] (first compound 0.06325 µM), 0.941; in experiment [3] (first compound 0.2 µM), 0.907. The figures for the relative viability in experiment [3] (first compound 0.6325 µM) and in experiment [3] (first compound 2 µM) were 1.06 and 1.04, respectively.

As for PC-3 [JPC-3], the relative viability in experiment [1] (first compound 0.02 µM) came to 0.628; in experiment [1] (first compound 0.06325 µM), 0.595; in experiment [1] (first compound 0.2 µM) it was 0.647; in experiment [1] (first compound 0.6325 µM), 0.682; in experiment [1] (first compound 2 µM), 0.839; with Trametinib + Bortezomib (first compound 0.0025 µM) it was 0.862. The relative viability came to 0.815 in the experiment with Trametinib + Bortezomib (first compound 0.007906 µM); 0.837 in the experiment with Trametinib + Bortezomib (first compound 0.025 µM); 0.716 with Trametinib + Bortezomib (first compound 0.07906 µM); 0.262 with Trametinib + Bortezomib (first compound 0.25 µM); 0.863 in experiment [2] (first compound 0.02 µM); 0.777 in experiment [2] (first compound 0.06325 µM). The relative viability in experiment [2] (first compound 0.2 µM) turned out to be 0.863; in experiment [2] (first compound 0.6325 µM), 0.786; in experiment [2] (first compound 2 µM) it was 0.812; in experiment [3] (first compound 0.02 µM), 1.06; in experiment [3] (first compound 0.06325 µM), 1.02; in experiment [3] (first compound 0.2 µM), 0.987. For the same cell line, the values for the relative viability in experiment [3] (first compound 0.6325 µM) and in experiment [3] (first compound 2 µM) were 0.973 and 1.05, respectively.

PC-14: the relative viability came to 0.212 in experiment [1] (first compound 0.02 µM); 0.138 in experiment [1] (first compound 0.06325 µM); 0.173 in experiment [1] (first compound 0.6325 µM); 0.135 in experiment [1] (first compound 2 µM); 0.918 with Trametinib + Bortezomib (first compound 0.0025 µM); 0.834 with Trametinib + Bortezomib (first compound 0.007906 µM). Besides, the relative viability in the experiment with Trametinib + Bortezomib (first compound 0.025 µM) came to 0.673; with Trametinib + Bortezomib (first compound 0.07906 µM) it was 0.76; in the experiment with Trametinib + Bortezomib (first compound 0.25 µM) it was 0.594; in experiment [2] (first compound 0.02 µM) it was 0.218; in experiment [2] (first compound 0.06325 µM) it was 0.209; in experiment [2] (first compound 0.2 µM) it was 0.178. For the same cell line, the relative viability turned out to be 0.23 in experiment [2] (first compound 0.6325 µM); 0.226 in experiment [2] (first compound 2 µM); 0.993 in experiment [3] (first compound 0.02 µM); 0.975 in experiment [3] (first compound 0.06325 µM); 1.04 in experiment [3] (first compound 0.2 µM); 0.959 in experiment [3] (first compound 0.6325 µM). Besides, the relative viability in experiment [3] (first compound 2 µM) was determined as 1.01.

As to RERF-LC-KJ, the relative viability was found to be 1.21 in experiment [1] (first compound 0.02 µM); 1.14 in experiment [1] (first compound 0.06325 µM); 1.22 in experiment [1] (first compound 0.2 µM); 1.24 in experiment [1] (first compound 0.6325 µM); 1.37 in experiment [1] (first compound 2 µM); 0.91 with Trametinib + Bortezomib (first compound 0.0025 µM). Further, the relative viability with Trametinib + Bortezomib (first compound 0.007906 µM) was 1.02; with Trametinib + Bortezomib (first compound 0.025 µM) it was 0.926; with Trametinib + Bortezomib (first compound 0.07906 µM), 0.877; with Trametinib + Bortezomib (first compound 0.25 µM) it was 0.661; in experiment [2] (first compound 0.02 µM), 0.736; in experiment [2] (first compound 0.06325 µM), 0.633. For the same cell line, the relative viability amounted to 0.708 in experiment [2] (first compound 0.2 µM); 0.666 in experiment [2] (first compound 0.6325 µM); 0.687 in experiment [2] (first compound 2 µM); 0.924 in experiment [3] (first compound 0.02 µM); 0.938 in experiment [3] (first compound 0.06325 µM); 0.867 in experiment [3] (first compound 0.2 µM). The relative viability in experiment [3] (first compound 0.6325 µM) amounted to 0.859; in experiment [3] (first compound 2 µM), 0.779.

For the cell line SK-LU-1, the relative viability came out at 0.201 in experiment [1] (first compound 0.02 µM); 0.185 in experiment [1] (first compound 0.06325 µM); 0.191 in experiment [1] (first compound 0.2 µM); 0.184 in experiment [1] (first compound 0.6325 µM); 0.2 in experiment [1] (first compound 2 µM); 1.13 with Trametinib + Bortezomib (first compound 0.0025 µM). In addition, the relative viability with Trametinib + Bortezomib (first compound 0.007906 µM) amounted to 0.815; in the experiment with Trametinib + Bortezomib (first compound 0.025 µM) it was 0.726; with Trametinib + Bortezomib (first compound 0.07906 µM) it was 0.623; in the experiment with Trametinib + Bortezomib (first compound 0.25 µM), 0.326; in experiment [2] (first compound 0.02 µM) it was 0.484; in experiment [2] (first compound 0.06325 µM) it was 0.499. In addition, the relative viability was determined as 0.578 in experiment [2] (first compound 0.2 µM); 0.617 in experiment [2] (first compound 0.6325 µM); 0.6 in experiment [2] (first compound 2 µM); 0.596 in experiment [3] (first compound 0.02 µM); 0.705 in experiment [3] (first compound 0.06325 µM); 0.869 in experiment [3] (first compound 0.2 µM). Further, the relative viability in experiment [3] (first compound 0.6325 µM) was found to be 0.713; in experiment [3] (first compound 2 µM) it was 0.992.

On to SW 1573, for which the relative viability in experiment [1] (first compound 0.02 µM) was found to be 0.235; in experiment [1] (first compound 0.06325 µM) it was 0.279; in experiment [1] (first compound 0.2 µM), 0.327; in experiment [1] (first compound 0.6325 µM), 0.181; in experiment [1] (first compound 2 µM), 0.243; in the experiment with Trametinib + Bortezomib (first compound 0.0025 µM), 0.806. Besides, the relative viability with Trametinib + Bortezomib (first compound 0.007906 µM) is 0.514; in the experiment with Trametinib + Bortezomib (first compound 0.025 µM), 0.888; with Trametinib + Bortezomib (first compound 0.07906 µM) it was 0.743; with Trametinib + Bortezomib (first compound 0.25 µM) it was 0.417; in experiment [2] (first compound 0.02 µM), 0.477; in experiment [2] (first compound 0.06325 µM), 0.498. The relative viability was 0.514 in experiment [2] (first compound 0.2 µM); 0.542 in experiment [2] (first compound 0.6325 µM); 0.458 in experiment [2] (first compound 2 µM); 0.995 in experiment [3] (first compound 0.02 µM); 0.925 in experiment [3] (first compound 0.06325 µM); 0.894 in experiment [3] (first compound 0.2 µM). Besides, the relative viability turned out to be 0.975 in experiment [3] (first compound 0.6325 µM) and 0.822 in experiment [3] (first compound 2 µM).

The values above are taken from the supplement of paper PMC10307832.
